In patent US9802897B2, “Amidopyridinol derivative or pharmaceutically acceptable salt thereof and pharmaceutical composition comprising same as active component” (Research Cooperation Foundation of Yeungnam University, priority 2013, dated 2017):

Experiments:
HT-29 cells / U937 cells = test: TNF-α-induced adhesion of HT-29 intestinal epithelial cells and U937 mononuclear cells; assay type: cell-based, human; conditions: Homo sapiens, TNF-α 10 ng/ml, read-out: Inhibitory rates (%)
How it was run: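 HT-29 cells were pretreated with compound for 1 h in serum-free medium, then stimulated with TNF-α 10 ng/ml for 3 h at 37 °C. BCECF-AM-labelled U937 cells were co-incubated for 1 h at 37 °C. Non-adherent cells were washed off, and lysates in 0.1% Triton X-100/0.1 M Tris were read by fluorescence.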

TNBS-induced colitis = TNBS-induced colitis model of inflammatory bowel disease; assay type: in vivo, rat (Sprague Dawley); conditions: for conditions of the large intestine observed with the naked eye / changes in weights of the rat: TNBS-induced rats; for weight of the large intestine: vs TNBS-treated group
From the text: To see alleviating effects of the compounds of the present invention on colitis, an animal model induced by TNBS and having colitis was used for the experiments. The animal used herein was a 7 to 8 week Sprague Dawley species purchased from Samtaco Bio Korea. After the purchase, the animal was stabilized with typical solid feed for 2 days before being used for the experiments. The animal was freely supplied with feed and water during the experiments, and stayed in conditions maintaining a cage temperature of about 25±1° C. and relative humidity of about 50±10%. The cage was equipped with an automatic lightening system to adjust 12-hour light-dark cycle.
In regard to the experimental groups, 5 groups (i.e., a control group, a group administered with TNBS only, […], […], […]) were used according to the randomized block design, wherein each group consists of 6 rats having an average weight of about 180±10 g. The rats that had been fasting for 24 hours were anesthetized with diethylether (Et2O), and then, a 1 mL syringe connected with a polyethylene catheter was used to slowly inject 0.8 mL of 3% TNBS into colonic enema through the anus, wherein TNBS was diluted with 50% (v/v) ethanol. To prevent leakage of 3% TNBS from the anus, the rats turned upside down and let stand for 60 minutes.
In regard to the control group, only a vehicle (50% (v/v) ethanol) was injected into the rats of the control group in the same manner as in preparation of other experimental groups. To examine the effects of the drug, after being fasting for 24 hours, the rats were administered with drugs, i.e., 0.1 mg/kg or 1.0 mg/kg of Compounds 8a and 8j, once a day at a certain time from the second day to the fifth day of the TNBS treatment. As a comparative experimental material, 5-ASA, which is an active metabolite of sulfasalazine that is the most well-known as a therapeutic agent for IBDs, was used as a positive control group.
All the rats were scarified on the seventh day of the TNBS administration. […] After the large intestine of the rat was harvested, a 5 to 6 cm-long tissue from was cut from the anus to a size of 1 cm, and then, subjected to measure an intestine weight and activation of myeloperoxidase (MPO) in the tissue, and to perform a biopsy. In addition, changes in weight of all the animals used in the experiments were observed by using a digital mass meter, beginning from the fasting step, the TNBS administration, and the drug administration. In consideration of the management and use of laboratory animals, the animal experiments were followed according to institutional guidelines from Laboratory Animal Resources, Yeungnam University.
To measure the activation of MPO, an MPO assay was used. The colorectal tissue was washed with cold PBS, and a weight thereof was measured. Then, 200 μL of lysis buffer (pH7.4, 200 mM NaCl, 5 mM EDTA, 10 mM Tris, 10% glycerol) was added for each 10 mg of the weight of the tissue, and then, the tissue homogenizer (Bio homogenizer M133, BIOSPEC PRODUCTS Inc. USA) was used for 30 seconds in terms of homogenization. The homogenized sample was subjected to centrifugation (1500×g) twice, each for 15 minutes. The supernatant obtained therefrom was used to measure the activation of MPO by using the MPO ELISA kit (HK210, Hycult Biotechnology, Netherlands). 100 μL of the supernatant was added to the 96-well plates, each of which well was coated with an anti-mouse MPO antibody, to allow a reaction at room temperature for 1 hour, followed by being washed with PBS three times. Here, 100 μL of a reconstituted tracer was added thereto to allow a reaction at room temperature for 1 hour, followed by being washed three times repeatedly. Then, 100 μL of a reptavidin-peroxidase conjugate was added thereto to allow a reaction at room temperature for 1 hours, followed being washed. Then, 100 μL of a TMB substrate solution was added thereto to allow a reaction for 30 minutes. […]

[1] = tested on: VEGF-induced angiogenesis in chicken chorioallantoic membrane (CAM); test: CAM analysis of VEGF-induced angiogenesis; assay type: in vivo; conditions: Gallus gallus, 72 h; VEGF (20 ng/CAM) + Compound (0.01 nmol/CAM); number of blood vessels after 3 days; read-out: Inhibitory rates (%)
How it was run: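 Fertilized chicken eggs incubated at 37° C, 55% humidity; on day 10 a window was opened and a cortisone acetate (3 mg/mL)-treated filter disk carrying VEGF at 20 ng/CAM was placed on vessels. Compounds in DMSO/PBS were applied at several concentrations for 3 days; blood vessel number under the disk was counted by stereomicroscopy.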

SMILES	inhibition at 20000 µM (HT-29 cells / U937 cells; 20 mM) [%]	activation of myeloperoxidase (MPO) in colorectal tissue (TNBS-induced colitis; 100 mg/kg)	conditions of the large intestine observed with the naked eye (TNBS-induced colitis; 100 mg/kg)	weight of the large intestine (TNBS-induced colitis; 100 mg/kg)	changes in weights of the rat (TNBS-induced colitis; 300 mg/kg)	inhibition in vivo at 0.01 nmol/CAM [1] [%]	inhibition at 1 µM (HT-29 cells / U937 cells; 1 μM, pre-treated 1 hour) [%]	changes in weights of the rat (TNBS-induced colitis; 1.0 mg/kg once a day)	conditions of the large intestine observed with the naked eye (TNBS-induced colitis; 1.0 mg/kg)	weight of the large intestine (TNBS-induced colitis; 1.0 mg/kg)
Nc1ccc(O)c(C(=O)O)c1 [Compound 5-ASA, 5-aminosalicylic acid, reference compound]	46.8	significantly decreased activation of MPO	significantly inhibited	significantly decreased	slowly recovered on the third day					
Cc1nc(NC(=O)CCc2ccccc2)c(C)c(C)c1O [Compound 8j, N-(5-hydroxy-3,4,6-trimethylpyridine-2-yl)-3-phenylpropanamide]						74.2 ± 3.9	72.5	significant weight recovery and increased weight	excellent inhibitory effects on swelling and congestion	significantly decreased
